Experimental data as given in ChEMBL document CHEMBL1201862, “PubChem BioAssay data set” (2004).
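96-well plates; 48 h exposure; 5 concentrations. Endpoints by linear interpolation between flanking doses. Not reached: highest tested concentration assigned. GI50 = concentration required for 50% inhibition of growth.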 Active and inactive are the calls of the source. Cut-off read from the data, not from the text of the source: active = GI50 up to about 1.1 µM and inactive = higher.

Columns and labels:
Experiment in all cases: growth of human tumour cells (NCI), 48 h
SR = system: SR
M14 = system: M14
NCI-H460 = system: NCI-H460
CCRF-CEM = system: CCRF-CEM
UACC-62 = system: UACC-62
HOP-62 = system: HOP-62
NCI-H522 = system: NCI-H522
UO-31 = system: UO-31
SF-268 = system: SF-268
MOLT-4 = system: MOLT-4
HCT-116 = system: HCT-116
A498 = system: A498
Hs-578T = system: Hs-578T
CAKI-1 = system: CAKI-1
HL-60 = system: HL-60
MDA-MB-231 = system: MDA-MB-231
SK-MEL-5 = system: SK-MEL-5
RPMI-8226 = system: RPMI-8226
A549 = system: A549
PC-3 = system: PC-3

| SMILES | GI50 (SR) | GI50 (M14) | GI50 (NCI-H460) | GI50 (CCRF-CEM) | GI50 (UACC-62) | GI50 (HOP-62) | GI50 (NCI-H522) | GI50 (UO-31) | GI50 (SF-268) | GI50 (MOLT-4) | GI50 (HCT-116) | GI50 (A498) | GI50 (Hs-578T) | GI50 (CAKI-1) | GI50 (HL-60) | GI50 (MDA-MB-231) | GI50 (SK-MEL-5) | GI50 (RPMI-8226) | GI50 (A549) | GI50 (PC-3) |
| --- | --- | --- | --- | --- | --- | --- | --- | --- | --- | --- | --- | --- | --- | --- | --- | --- | --- | --- | --- | --- |
| CC(=O)NNc1nc(C)c(C(=O)/C=C/C=C/c2ccccc2)s1 | 80.9 µM (inactive) | 48.9 µM (inactive) | > 100 µM (inactive) | 61.2 µM (inactive) | > 100 µM (inactive) | 80.4 µM (inactive) | 61.9 µM (inactive) | > 100 µM (inactive) | > 100 µM (inactive) | 56.1 µM (inactive) | 57.1 µM (inactive) | > 100 µM (inactive) | > 100 µM (inactive) | > 100 µM (inactive) | 44.4 µM (inactive) | 65.5 µM (inactive) | > 100 µM (inactive) | 76 µM (inactive) | – | – |
| Nc1nc(Cl)c(N)c(NCC2(CO)CC(Cc3ccccc3)C2)n1 (stereo unspecified) | – | 55.2 µM (inactive) | > 55.5 µM (inactive) | 23.1 µM (inactive) | > 76.9 µM (inactive) | > 49.3 µM (inactive) | 28.5 µM (inactive) | > 100 µM (inactive) | > 92.9 µM (inactive) | 16.3 µM (inactive) | 3.15 µM (inactive) | – | > 39.8 µM (inactive) | > 100 µM (inactive) | 4.8 µM (inactive) | 61.4 µM (inactive) | 0.0766 µM (active) | 2.41 µM (inactive) | > 75 µM (inactive) | 51.3 µM (inactive) |
| Oc1nc(S)nc2nc3c4cccnc4c4ccccc4c3nc12 | 50.4 µM (inactive) | > 100 µM (inactive) | 57.3 µM (inactive) | 74.6 µM (inactive) | > 100 µM (inactive) | 52.7 µM (inactive) | 86.3 µM (inactive) | > 100 µM (inactive) | > 100 µM (inactive) | > 100 µM (inactive) | > 100 µM (inactive) | > 100 µM (inactive) | > 100 µM (inactive) | > 100 µM (inactive) | 30.9 µM (inactive) | – | > 100 µM (inactive) | 45.8 µM (inactive) | > 100 µM (inactive) | > 100 µM (inactive) |
| CCOC(=O)c1c(SCCO)n(-c2ccccc2)c(=S)n(-c2ccccc2)c1=O | > 100 µM (inactive) | > 100 µM (inactive) | > 100 µM (inactive) | > 100 µM (inactive) | > 100 µM (inactive) | > 100 µM (inactive) | > 100 µM (inactive) | > 100 µM (inactive) | > 100 µM (inactive) | > 100 µM (inactive) | > 100 µM (inactive) | – | > 100 µM (inactive) | > 100 µM (inactive) | > 100 µM (inactive) | – | > 100 µM (inactive) | > 100 µM (inactive) | > 100 µM (inactive) | > 100 µM (inactive) |
| CCOC(=O)C(NC(=O)CC(C)C)(Nc1ccc(C(F)(F)F)cc1)C(F)(F)F (stereo unspecified) | 23.4 µM (inactive) | > 100 µM (inactive) | 26.4 µM (inactive) | 35.6 µM (inactive) | – | 36.1 µM (inactive) | 16.7 µM (inactive) | 61.7 µM (inactive) | > 100 µM (inactive) | 23 µM (inactive) | 17.2 µM (inactive) | – | 25.5 µM (inactive) | – | 21 µM (inactive) | – | 82.8 µM (inactive) | 16.7 µM (inactive) | > 100 µM (inactive) | 20 µM (inactive) |
| CC1(C)CC2=C(SC3C=CC=CC3N2)C(=O)C1C(=O)C(N)=O (stereo unspecified) | – | > 100 µM (inactive) | > 100 µM (inactive) | > 100 µM (inactive) | > 100 µM (inactive) | > 100 µM (inactive) | 72.3 µM (inactive) | 54.5 µM (inactive) | > 100 µM (inactive) | 40.4 µM (inactive) | > 100 µM (inactive) | – | > 100 µM (inactive) | > 100 µM (inactive) | 44.1 µM (inactive) | > 100 µM (inactive) | > 100 µM (inactive) | – | > 100 µM (inactive) | 65.9 µM (inactive) |
